The numbers were not newly measured in patent publication US8784850B2, “Highly biocompatible dual thermogelling chitosan/glucosamine salt composition” (Oligo Médic Inc., priority 2010, dated 2014), which cites them from elsewhere.

The subject of data set [1] is rats. To be noted: ingestion of 300 to 2149 mg/kg of body weight.
Data set [2] relates to human blood glucose metabolism. The settings on record: human studies.
The next data set has as its system dogs. To be noted: ingestion of 300 to 2149 mg/kg of body weight.
Data set [3] relates to rats. The settings on record: rat, in vivo, po.
The subject of data set [4] is rabbits. To be noted: rabbit, in vivo, po.
The next data set deals with mice. The settings on record: mouse, in vivo, po.
The test system of data set [5] is patients with osteoarthritis pain. To be noted: oral administration, more than 3000 patients.
Data set [6] concerns rabbits. The settings on record: ingestion of 300 to 2149 mg/kg of body weight.
The test system of data set [7] is outpatients with gonarthrosis.
The mark [8] stands for this setting: intra-articular, after treatment.
Setting [9] is: intra-articular, versus placebo.

Turning to `N[C@H]1C(O)O[C@H](CO)[C@@H](O)[C@@H]1O` (stereo partly drawn) [glucosamine], the blood glucose levels result with rats [1], with dogs and in the data set on rabbits [6] was “no effect on blood glucose levels” each time. The “plasma levels of glucose or insulin, insulin sensitivity or glucose oxidation” value in data set [2] is “did not affect”. Moreover, the LD50 (commonly the dose at which mortality reaches 50%) with rats [3] is reported as “exceed 5000 mg/kg”; in the data set with rabbits [4], over 8000 mg/kg; in the data set on mice, over 8000 mg/kg. In addition, in data set [5], the “adverse effects on blood, urine or fecal parameters” value is given as “no adverse effects”. Also, the “effectiveness in treating osteoarthritis pain” value in data set [5] is given as “moderately to highly effective”. The “local or general intolerance symptoms” value in data set [7] (during and after treatment) is “no local or general intolerance symptoms”. Moreover, the “angle of joint flexion” value in [7] (setting [8]) is reported as “substantially increased”. For the same molecule, the knee swelling result in data set [7] (setting [8]) is given as “did not decrease significantly”. In data set [7] (setting [9]), the active mobility entry is “a more favourable trend after glucosamine administration”. Further, the pain-free patients result in data set [7] (setting [9]) is reported as “significantly more pain-free patients”. Moreover, the pain result in [7] (one intra-articular injection per week for five weeks, versus placebo) is reported as “reduced pain to a significantly greater extent than did placebo”.
